In patent publication US11154563B2, “Immunoproteasome inhibitors” (Principia Biopharma Inc., priority 2017, dated 2021) one finds IC50 data, which are given here for ten compounds.

Experiment [1] addresses immunoproteasome LMP7/B5i subunit (Homo sapiens, UniProt P20618+P28062). The experiment is described as follows: Caliper-based proteasome enzymatic activity assay, LMP7. To be noted: human recombinant immunoproteasome 0.3 nM, FAM-peptide substrate 1 μM, 3 h at rt. Type of experiment: biochemical. Put shortly:
(§1)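 Recombinant human immunoproteasome or constitutive proteasome (0.3 nM) with 1 μM FAM-peptide in 20 mM Hepes pH 7.4, 0.015% SDS, 0.01% BSA; LMP7/β5c ran 3 h at rt and were stopped with 5 uM carfilzomib, LMP2 ran 2 h and was stopped with 6.7 uM ixazomib. Cleaved product quantified by microfluidic separation; IC50 from percent inhibition.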

Experiment [2] has as its target constitutive proteasome β5c unit (Homo sapiens, UniProt P20618+P28074). As to the kind of experiment: Caliper-based proteasome enzymatic activity assay, β5c. To be noted: human recombinant constitutive proteasome 0.3 nM, FAM-peptide substrate 1 μM, 3 h at rt; read-out: β5c subunit IC50. Type of experiment: biochemical. Put shortly: as §1

A word on the IC50: it is the point on the concentration scale where inhibition reaches its midpoint.

Consider `CC(C)(C=C(C#N)C(=O)N1CCCC[C@@H]1COC(=O)N[C@@H](Cc1coc2ccccc12)B(O)O)N1CCC(F)(F)CC1` [Example 66, ((R)-2-(benzofuran-3-yl)-1-(((((R)-1-(2-cyano-4-(4,4-difluoropiperidin-1-yl)-4-methylpent-2-enoyl)piperidin-2-yl)methoxy)carbonyl)amino)ethyl)boronic acid], for which the values for the IC50 in experiment [1] and in experiment [2] were 2.1 nM and 217 nM, respectively.
Turning to `C=CC(=O)N1CCS(=O)(=O)C[C@@H]1COC(=O)N[C@@H](Cc1coc2ccccc12)B(O)O` [Example 111], the IC50 in experiment [1] was found to be 4.2 nM; in experiment [2], 90 nM.
Regarding `CC(C)(C=C(C#N)C(=O)N1C[C@@H]2C[C@@H]2[C@@H]1COC(=O)N[C@@H](Cc1coc2ccccc12)B(O)O)N1CCOCC1` [Example 51, ((R)-2-(benzofuran-3-yl)-1-(((((1S,2R,5R)-3-(2-cyano-4-methyl-4-morpholinopent-2-enoyl)-3-azabicyclo[3.1.0]hexan-2-yl)methoxy)carbonyl)amino)ethyl)boronic acid], the 50% inhibitory concentration (IC50) in experiment [1] stood at 0.5 nM; in experiment [2] it was 356 nM.
On to `CC(C)(C=C(C#N)C(=O)N1CCC[C@]1(C)COC(=O)N[C@@H](Cc1coc2ccccc12)B(O)O)N1CCOCC1` [Example 71, ((R)-2-(benzofuran-3-1)-1-(((((R)-1-(2-cyano-4-methyl-4-morpholinopent-2-enoyl)-2-methylpyrrolidin-2-yl)methoxy)carbonyl)amino)ethyl)boronic acid], for which the IC50 in experiment [1] amounted to 4.5 nM; in experiment [2], 1660 nM.
As for `C[C@H]1CC[C@H](COC(=O)N[C@@H](Cc2coc3ccccc23)B(O)O)N1C(=O)C(C#N)=CC(C)(C)N1CCOCC1` [Example 57, ((R)-2-(benzofuran-3-yl)-1-(((((2R,5S)-1-(2-cyano-4-methyl-4-morpholinopent-2-enoyl)-5-methylpyrrolidin-2-yl)methoxy)carbonyl)amino)ethyl)boronic acid], the 50% inhibitory concentration (IC50) in experiment [1] worked out at 1.4 nM; in experiment [2] it was 176 nM.
Consider `C=CC(=O)N1C[C@@H]2C[C@@H]2[C@@H]1COC(=O)N[C@@H](Cc1ccc(C(F)(F)F)cc1)B(O)O` [Example 115, ((R)-1-(((((1S,2R,5R)-3-acryloyl-3-azabicyclo[3.1.0]hexan-2-yl)methoxy)carbonyl)amino)-2-(4-(trifluoromethyl)phenyl)ethyl)boronic acid], for which the half-inhibitory concentration (IC50) is 2.6 nM in experiment [1] and 2930 nM in experiment [2].
As for `C=CC(=O)N1C[C@@H]2C[C@@H]2[C@@H]1COC(=O)N[C@@H](Cc1coc2ccccc12)B(O)O` [Example 52, ((R)-1-(((((1S,2R,5R)-3-acryloyl-3-azabicyclo[3.1.0]hexan-2-yl)methoxy)carbonyl)amino)-2-(benzofuran-3-yl)ethyl)boronic acid], the figures for the IC50 in experiment [1] and in experiment [2] were 1.3 nM and 336 nM, respectively.
With `C=CC(=O)N1CC(F)(F)C[C@@H]1COC(=O)N[C@@H](Cc1coc2ccccc12)B(O)O` [Example 91, ((R)-1-(((((R)-1-acryloyl-4,4-difluoropyrrolidin-2-yl)methoxy)carbonyl)amino)-2-(benzofuran-3-yl)ethyl)boronic acid], the results for the concentration for half-maximal inhibition (IC50) in experiment [1] and in experiment [2] were 2.5 nM and 320 nM, respectively.
The corresponding values for `Cc1ccc(C[C@H](NC(=O)OC[C@H]2CCCCCN2C(=O)C(C#N)=CC(C)(C)N2CCC(F)(F)C2)B(O)O)cc1` [Example 84, ((R)-1-(((((R)-1-(2-cyano-4-(3,3-difluoropyrrolidin-1-yl)-4-methylpent-2-enoyl)azepan-2-yl)methoxy)carbonyl)amino)-2-(p-tolyl)ethyl)boronic acid] are 2.9 nM and 445 nM.
Turning to `CC(C)(C=C(C#N)C(=O)N1CCC[C@@H]1COC(=O)N[C@@H](Cc1coc2ccccc12)B(O)O)N1CCN(C2COC2)CC1` [Example 44, ((R)-2-(benzofuran-3-yl)-1-(((((R)-1-(2-cyano-4-methyl-4-(4-(oxetan-3-yl)piperazin-1-yl)pent-2-enoyl)pyrrolidin-2-yl)methoxy)carbonyl)amino)ethyl)boronic acid], the IC50 is 2.3 nM in experiment [1] and 396 nM in experiment [2].
